Measured values published in patent US12653811B2 (CLOSED LOOP MEDICINE LTD, priority 2020, dated 2026).

Key:
[1] = test system: patients with primary hypertension and inadequate BP control; assay: Precision dosing trial of amlodipine with home blood pressure and e-diary side effects (Example 1)
[2] = cited from earlier work

## CCOC(=O)C1=C(COCCN)NC(C)=C(C(=O)OC)C1c1ccccc1Cl (stereo not shown) [amlodipine]
[1]; during the trial to date
  toxic related side effects leading to treatment discontinuation: no toxic related side effects leading to treatment discontinuation were observed
[1]; end of study, baseline mean DBP 88 mmHg, 109 patients begun, 39 completed, linear mixed model estimate
  end mean DBP: 81 mmHg
[1]; end of study, baseline mean SBP 146 mmHg, 109 patients begun, 39 completed, linear mixed model estimate
  end mean SBP: 133 mmHg
[1]; single patient, final dose of 10 mg, VAS 0-100 scale (1-25 mild, 26-50 moderate)
  side effects (oedema) by VAS score: mild to moderate
[2]; FIG. 1, Williams et al 1988
  dose linearity of pharmacokinetics: linear across a wide range of doses
[2]; elderly
  increase in total exposure: up to 60%
[2]; steady-state, same dose
  variance in average amlodipine blood levels between subjects: up to 30%
